Experimental data as given in US20230159511A1, “TETRAHYDROISOQUINOLINE COMPOUNDS AS NRF2 ACTIVATORS” (C4X Discovery Limited, priority 2020, published 2023).
pEC50, pIC50: −log10 of the molar value.

How the values were obtained:
[1] = biological target: T1, human KEAP1 (N-term, residues 321-609) (Homo sapiens, UniProt Q14145); experiment: KEAP1 Kelch Fluorescence Polarization (FP) Assay; assay type: binding; conditions: inhibition of Kelch domain-NRF2 interaction; 2 nM FITC-labelled NRF2 peptide, 25 nM KEAP1, 1 h room temperature; compounds below 10 nM cannot be differentiated
T1 construct: human KEAP1 (N-term, residues 321-609)
Outline: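 Compounds in 12-point curves (top 10 μM) displaced 2 nM FITC-labelled NRF2 peptide from 25 nM KEAP1 residues 321-609 over 1 h at room temperature. Polarization read at 470/530 nm, window set by 50 μM unlabelled peptide; four-parameter fit gave IC50, floor 10 nM.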

[2] = tested on: NRF2 mediated gene NAD(P)H:quinone acceptor oxidoreductase 1 (NQO1) in BEAS-2B cells; experiment: Beas2B NQO1 mRNA Cell Based Assay; set-up: species or system human; conditions: Homo sapiens; BEAS-2B cells, compound for 24 h; increase in NQO1 mRNA compared to vehicle (0.1% DMSO) control; read-out: EC50
Outline: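 BEAS-2B cells treated 24 h with compound; NQO1 mRNA measured by one-step TaqMan RT-PCR on crude lysates, normalised to beta actin by ΔΔCT. Fold increase over 0.1% DMSO vehicle; EC50 from four-parameter logistic fit.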

T1 sequence (Q14145 321-609): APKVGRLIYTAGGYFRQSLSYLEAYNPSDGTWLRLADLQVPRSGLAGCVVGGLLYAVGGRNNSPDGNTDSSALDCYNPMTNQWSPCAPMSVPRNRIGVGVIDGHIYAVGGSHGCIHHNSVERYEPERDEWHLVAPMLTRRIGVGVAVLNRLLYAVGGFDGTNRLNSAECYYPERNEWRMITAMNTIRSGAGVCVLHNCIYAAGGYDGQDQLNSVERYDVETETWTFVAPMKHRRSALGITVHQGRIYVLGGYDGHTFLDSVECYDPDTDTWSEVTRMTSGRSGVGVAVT

pIC50 [1]: 8.01
SMILES: CNC(=O)[C@@]1(C)CCCC[C@H]1C(=O)N1CCc2c(Cl)ccc(OCc3nnn(C)c3C(F)(F)F)c2[C@H]1CN1CCCC1=O [Example 91, (1S,2R)-2-((S)-5-chloro-8-((1-methyl-5-(trifluoromethyl)-1H-1,2,3-triazol-4-yl)methoxy)-1-((2-oxopyrrolidin-1-yl)methyl)-1,2,3,4-tetrahydroisoquinoline-2-carbonyl)-N,1-dimethylcyclohexane-1-carboxamide]
pEC50 [2]: 6.22
